Measurements published in ChEMBL document CHEMBL1136196, “Synthesis of three enantiomeric pairs of scyllo-inositol phosphate and molecular interactions between all possible regioisomers of scyllo-inositol phosphate and inositol 1,4,5-trisphosphate 3-kinase” (Bioorg Med Chem Lett, 2003).
pIC50: −log10 of the molar value.

The compounds below were run against Inositol-trisphosphate 3-kinase A (Rattus norvegicus, UniProt P17105) (assay: Binding affinity against recombinant plasmid rat brain IP3K by overexpressing in Escherichia coli).
Inositol-trisphosphate 3-kinase A, sequence (P17105 whole entry): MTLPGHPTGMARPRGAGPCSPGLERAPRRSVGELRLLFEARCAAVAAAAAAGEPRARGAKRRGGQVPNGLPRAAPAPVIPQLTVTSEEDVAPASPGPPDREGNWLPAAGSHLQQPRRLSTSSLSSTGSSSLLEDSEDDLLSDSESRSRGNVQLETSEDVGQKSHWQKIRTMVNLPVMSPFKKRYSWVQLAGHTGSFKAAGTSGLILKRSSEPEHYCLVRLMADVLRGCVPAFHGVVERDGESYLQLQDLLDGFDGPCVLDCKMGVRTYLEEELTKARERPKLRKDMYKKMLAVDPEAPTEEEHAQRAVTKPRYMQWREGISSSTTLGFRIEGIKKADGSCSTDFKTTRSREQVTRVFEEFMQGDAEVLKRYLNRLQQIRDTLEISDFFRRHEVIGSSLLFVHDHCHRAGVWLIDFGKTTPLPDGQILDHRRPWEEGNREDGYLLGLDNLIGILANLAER
A pIC50 of 4.56 was found for `O=P(O)(O)O[C@H]1[C@H](O)[C@@H](OP(=O)(O)O)[C@H](OP(=O)(O)O)[C@@H](OP(=O)(O)O)[C@H]1O` in this work. A pIC50 of 4.56 was found for `O=P(O)(O)O[C@H]1[C@H](OP(=O)(O)O)[C@H](O)[C@H](O)[C@@H](O)[C@@H]1OP(=O)(O)O` in this work. With `O=P(O)(O)O[C@H]1[C@H](OP(=O)(O)O)[C@H](OP(=O)(O)O)[C@H](O)[C@@H](O)[C@H]1OP(=O)(O)O` the pIC50 was < 4.00. A pIC50 of 4.40 was found for `O=P(O)(O)O[C@H]1[C@@H](O)[C@@H](OP(=O)(O)O)[C@H](OP(=O)(O)O)[C@@H](OP(=O)(O)O)[C@@H]1O` in this work. A pIC50 of 4.05 was found for `O=P(O)(O)O[C@H]1[C@H](O)[C@@H](OP(=O)(O)O)[C@H](O)[C@@H](OP(=O)(O)O)[C@H]1O` in this work. With `O=P(O)(O)O[C@H]1[C@H](OP(=O)(O)O)[C@@H](OP(=O)(O)O)[C@H](O)[C@@H](O)[C@H]1OP(=O)(O)O` the pIC50 was < 4.00. A pIC50 of 5.59 was found for `O=P(O)(O)O[C@@H]1[C@H](O)[C@H](O)[C@@H](OP(=O)(O)O)[C@H](OP(=O)(O)O)[C@H]1O` (stereo in doubt; form 1) [INS(1,4,5)P3] in this work. A pIC50 of 5.20 was found for `O=P(O)(O)O[C@@H]1[C@H](O)[C@H](O)[C@@H](OP(=O)(O)O)[C@H](OP(=O)(O)O)[C@H]1O` (stereo in doubt; form 2) [INS(1,4,5)P3] in this work. A pIC50 of 4.36 was found for `O=P(O)(O)O[C@@H]1[C@H](O)[C@H](O)[C@@H](OP(=O)(O)O)[C@H](OP(=O)(O)O)[C@H]1O` (stereo in doubt; form 3) [INS(1,4,5)P3] in this work.
